This note sets out measurements from patent publication US10471046B2, “Method for treating, preventing, or reducing the risk of skin infection” (Melinta Subsidiary Corp., priority 2014, dated 2019).

The test system of this experiment is S. aureus. The experiment can be described thus: Minimum inhibitory concentrations (MICs) for S. aureus of exemplary compounds (Table 2). As to conditions: minimum inhibitory concentrations for S. aureus; for MIC: Staphylococcus aureus, read-out: MICs. Format: cell-based. An excerpt: Exemplary compounds in accordance with the invention are listed in Table 2 with their minimum inhibitory concentrations (MICs) (μg/mL) for S. aureus:
Furthermore, the antibiotic compounds can be assayed for anti-proliferative or anti-infective properties on a cellular level. For example, where the target organism is a microorganism, the activity of compounds of interest can be assayed by growing the microorganisms of interest in media either containing or lacking the compound. Growth inhibition can be indicative that the molecule could be acting as a protein synthesis inhibitor. […] For this purpose, a panel of bacterial strains can be assembled to include a variety of target pathogenic species, some containing resistance mechanisms that have been characterized. Use of such a panel of organisms permits the determination of structure-activity relationships not only in regards to potency and spectrum, but also with a view to obviating resistance mechanisms. The assays can be performed in microtiter trays according to conventional methodologies as published by The National Committee for Clinical Laboratory Standards (NCCLS) guidelines (NCCLS. M7-A5-Methods for Dilution Antimicrobial Susceptibility Tests for Bacteria That Grow Aerobically; Approved Standard-Fifth Edition. NCCLS Document M100-S12/M7 (ISBN 1-56238-394-9)).

Values after ≈ are worked out from the molar mass of the structure shown.

On to `CC(=O)NC[C@H]1CN(c2ccc(-c3ccc(CN4CCC(C(N)=O)C4)cc3)c(F)c2)C(=O)O1` (mixture of isomers) [Compound 1093, 1-{4′-[5-(S)-(Acetylamino-methyl)-2-oxo-oxazolidin-3-yl]-2′-fluoro-biphenyl-4-ylmethyl}-pyrrolidine-3-(R/S)-carboxylic acid amide], for which the MIC was found to be 2 µg/mL.
Still for that read-out and setting: the figure for `CC(=O)NC[C@H]1CN(c2ccc(-c3ccc(CN4CCCC(F)C4)cc3)c(F)c2)C(=O)O1` (mixture of isomers) [Compound 1096, N-{3-[2-Fluoro-4′-(3-(R/S)-fluoro-piperidin-1-ylmethyl)-biphenyl-4-yl]-2-oxo-oxazolidin-5-(S)-ylmethyl}-acetamide] is 1 µg/mL; for `CC(=O)NC[C@H]1CN(c2ccc(-c3ccc(C(C)NCc4ccoc4)cc3)c(F)c2)C(=O)O1` (mixture of isomers) [Compound 4144, N-[3-(2-Fluoro-4′-{1-(R/S)-[(furan-3-ylmethyl)-amino]-ethyl}-biphenyl-4-yl)-2-oxo-oxazolidin-5-(S)-ylmethyl]-acetamide] it is 4 µg/mL.
Consider `CC(=O)NC[C@H]1CN(c2ccc(-c3ccc(C(C)NCc4nccs4)cc3)c(F)c2)C(=O)O1` (mixture of isomers) [Compound 4145, N-[3-(2-Fluoro-4′-{1-(R/S)-[(thiazol-2-ylmethyl)-amino]-ethyl}-biphenyl-4-yl)-2-oxo-oxazolidin-5-(S)-ylmethyl]-acetamide], for which the MIC was 2 µg/mL.
Same read-out and setting: the figure for `CC(=O)NC[C@H]1CN(c2ccc(-c3ccc(CNCCC4CCCN4C)cc3)c(F)c2)C(=O)O1` (mixture of isomers) [Compound 4150, N-[3-(2-Fluoro-4′-{[2-(R/S)-(1-methyl-pyrrolidin-2-yl)-ethylamino]-methyl}-biphenyl-4-yl)-2-oxo-oxazolidin-5-(S)-ylmethyl]-acetamide] is 16 µg/mL; for `CC(=O)NC[C@H]1CN(c2ccc(-c3ccc(CNCC4CCNC4)cc3)c(F)c2)C(=O)O1` (mixture of isomers) [Compound 4153, N-[3-(2-Fluoro-4′-{[(pyrrolidin-3-(R/S)-ylmethyl)-amino]-methyl}-biphenyl-4-yl)-2-oxo-oxazolidin-5-(S)-ylmethyl]-acetamide] it is 4 µg/mL.
Regarding `CC(=O)NC[C@H]1CN(c2ccc(-c3ccc(C(C)NCc4ccncc4)cc3)c(F)c2)C(=O)O1` (mixture of isomers) [Compound 4232, N-[3-(2-Fluoro-4′-{1-(R/S)-[(pyridin-4-ylmethyl)-amino]-ethyl}-biphenyl-4-yl)-2-oxo-oxazolidin-5-(S)-ylmethyl]-acetamide], the MIC worked out at 8 µg/mL.
For `CC(=O)NC[C@H]1CN(c2ccc(-c3ccc(CNCC(O)c4ccc(F)cc4)cc3)c(F)c2)C(=O)O1` (mixture of isomers) [Compound 4275, N-[3-(2-Fluoro-4′-{[2-(4-fluoro-phenyl)-2-(R/S)-hydroxy-ethylamino]-methyl}-biphenyl-4-yl)-2-oxo-oxazolidin-5-(S)-ylmethyl]-acetamide], the MIC is 0.5 µg/mL.
Turning to `CC(=O)NC[C@H]1CN(c2ccc(-c3ccc(CNC(C)c4cnn[nH]4)cc3)c(F)c2)C(=O)O1` (mixture of isomers) [Compound 4278, N-[3-(2-Fluoro-4′-{[1-(R/S)-(3H-[1,2,3]triazol-4-yl)-ethylamino]-methyl}-biphenyl-4-yl)-2-oxo-oxazolidin-5-(S)-ylmethyl]-acetamide], the MIC is 2 µg/mL.
Turning to `CC(=O)NC[C@H]1CN(c2ccc(-c3ccc(CNCC4CCCN4)cc3)c(F)c2)C(=O)O1` (mixture of isomers) [Compound 4279, N-[3-(2-Fluoro-4′-{[(pyrrolidin-2-(R/S)-ylmethyl)-amino]-methyl}-biphenyl-4-yl)-2-oxo-oxazolidin-5-(S)-ylmethyl]-acetamide], the MIC turned out to be 4 µg/mL.
Consider `CC(=O)NC[C@H]1CN(c2ccc(-c3ccc(CNC(=O)C4CNCCN4)cc3)c(F)c2)C(=O)O1` (mixture of isomers) [Compound 4322, Piperazine-2-(R/S)-carboxylic acid {4′-[5-(S)-(acetylamino-methyl)-2-oxo-oxazolidin-3-yl]-2′-fluoro-biphenyl-4-ylmethyl}-amide], for which the MIC amounted to 2 µg/mL.
Same read-out and setting: the figure for `CC(=O)NC[C@H]1CN(c2ccc(-c3ccc(C(NC(=O)OCc4ccccc4)c4nn[nH]n4)cc3)c(F)c2)C(=O)O1` (mixture of isomers) [Compound 1039, [{4′-[5-(S)-(Acetylamino-methyl)-2-oxo-oxazolidin-3-yl]-2′-fluoro-biphenyl-4-yl}-(2H-tetrazol-5-(R/S)-yl)-methyl]-carbamic acid benzyl ester] is 128 µg/mL (≈ 229 µM); for `CC(=O)NC[C@H]1CN(c2ccc(-c3ccc(C(N)c4nn[nH]n4)cc3)c(F)c2)C(=O)O1` (mixture of isomers) [Compound 1040, N-(3-{4′-[Amino-(2H-tetrazol-5-(R/S)-yl)-methyl]-2-fluoro-biphenyl-4-yl}-2-oxo-oxazolidin-5-(S)-ylmethyl)-acetamide] it is 128 µg/mL (≈ 301 µM); for `CC(=O)NC[C@H]1CN(c2ccc(-c3ccc(C(NC(=O)OCc4ccccc4)c4nnn(C)n4)cc3)c(F)c2)C(=O)O1` (mixture of isomers) [Compound 1041, [{4′-[5-(S)-(Acetylamino-methyl)-2-oxo-oxazolidin-3-yl]-2′-fluoro-biphenyl-4-yl}-(2-methyl-2H-tetrazol-5-(R/S)-yl)-methyl]-carbamic acid benzyl ester] it is 1 µg/mL (≈ 1.74 µM).
As for `CC(=O)NC[C@H]1CN(c2ccc(-c3ccc(C(N)c4nnn(C)n4)cc3)c(F)c2)C(=O)O1` (mixture of isomers) [Compound 1042, N-(3-{4′-[Amino-(2-methyl-2H-tetrazol-5-(R/S)-yl)-methyl]-2-fluoro-biphenyl-4-yl}-2-oxo-oxazolidin-5-(S)-ylmethyl)-acetamide], the MIC is 64 µg/mL (≈ 146 µM).
Same read-out and setting: the figure for `CC(=O)NC[C@H]1CN(c2ccc(-c3ccc(CN4CC(CF)OC4=O)cc3)c(F)c2)C(=O)O1` (mixture of isomers) [Compound 1095, N-{3-[2-Fluoro-4′-(5-fluoromethyl-2-oxo-oxazolidin-3-(R/S)ylmethyl)-biphenyl-4-yl]-2-oxo-oxazolidin-5-(S)-ylmethyl}-acetamide] is 0.5 µg/mL (≈ 1.09 µM); for `CC(=O)NC[C@H]1CN(c2ccc(-c3ccc(CNC4CNC4)cc3)c(F)c2)C(=O)O1` (racemic) [Compound 2011, N-{3-[4′-(Azetidin-3-(R/S)-ylaminomethyl)-2-fluoro-biphenyl-4-yl]-2-oxo-oxazolidin-5-(S)-ylmethyl}-acetamide] it is 8 µg/mL (≈ 19.4 µM); for `CC(=O)NC[C@H]1CN(c2ccc(-c3ccc(CNC(C)c4ccncc4)cc3)c(F)c2)C(=O)O1` (mixture of isomers) [Compound 4159, N-(3-{2-Fluoro-4′-[(1-pyridin-4-(R/S)-yl-ethylamino)-methyl]-biphenyl-4-yl}-2-oxo-oxazolidin-5-(S)-ylmethyl)-acetamide] it is 2 µg/mL (≈ 4.32 µM).
Same read-out and setting: the figure for `CC(=O)NC[C@H]1CN(c2ccc(-c3ccc(C(C)NC(C)c4ccncc4)cc3)c(F)c2)C(=O)O1` (mixture of isomers) [Compound 4160, N-(3-{2-Fluoro-4′-[1-(R/S)-(1-pyridin-4-(R/S)-yl-ethylamino)-ethyl]-biphenyl-4-yl}-2-oxo-oxazolidin-5-(S)-ylmethyl)-acetamide] is 8 µg/mL (≈ 16.8 µM).
With `CC(=O)NC[C@H]1CN(c2ccc(-c3ccc(C(CO)NCc4csnn4)cc3)c(F)c2)C(=O)O1` (mixture of isomers) [Compound 4171, N-[3-(2-Fluoro-4′-{2-hydroxy-1-[([1,2,3]thiadiazol-4-(R/S)-ylmethyl)-amino]-ethyl}-biphenyl-4-yl)-2-oxo-oxazolidin-5-(S)-ylmethyl]-acetamide], the MIC amounted to 4 µg/mL (≈ 8.24 µM).
`CC(=O)NC[C@H]1CN(c2ccc(-c3ccc(C(CO)NCc4csnn4)cc3)c(F)c2)C(=O)O1` (mixture of isomers) [Compound 4172, N-[3-(2-Fluoro-4′-{2-hydroxy-1-[([1,2,3]thiadiazol-4-(R/S)-ylmethyl)-amino]-ethyl}-biphenyl-4-yl)-2-oxo-oxazolidin-5-(S)-ylmethyl]-acetamide] returned an MICs of 8 µg/mL.
As to `CC(=O)NC[C@H]1CN(c2ccc(-c3ccc(C(O)Cc4nnn[nH]4)cc3)c(F)c2)C(=O)O1` (stereo in doubt) [Compound 1060, N-(3-{2-Fluoro-4′-[1-(R)-hydroxy-2-(1H-tetrazol-5-yl)-ethyl]-biphenyl-4-yl}-2-oxo-oxazolidin-5-(S)-ylmethyl)-acetamide], the MIC amounted to 64 µg/mL (≈ 145 µM).
Still for that read-out and setting: the figure for `CC(=O)NC[C@H]1CN(c2ccc(-c3ccc(CNC(=O)C(N)Cc4cccnc4)cc3)c(F)c2)C(=O)O1` (stereo in doubt) [Compound 4310, N-{4′-[5-(S)-(Acetylamino-methyl)-2-oxo-oxazolidin-3-yl]-2′-fluoro-biphenyl-4-ylmethyl}-2-(R)-amino-3-pyridin-3-yl-propionamide] is 4 µg/mL (≈ 7.91 µM); for `CC(=O)NC[C@H]1CN(c2ccc(-c3ccc(CCn4ccnn4)cc3)c(F)c2)C(=O)O1` [Compound 1001, N-{3-[2-Fluoro-4′-(2-[1,2,3]triazol-1-yl-ethyl)-biphenyl-4-yl]-2-oxo-oxazolidin-5-(S)-ylmethyl}-acetamide] it is 2 µg/mL (≈ 4.72 µM).
Consider `CC(=O)NC[C@H]1CN(c2ccc(-c3ccc(CCn4ccnc4)cc3)c(F)c2)C(=O)O1` [Compound 1002, N-{3-[2-Fluoro-4′-(2-imidazol-1-yl-ethyl)-biphenyl-4-yl]-2-oxo-oxazolidin-5-(S)-ylmethyl}-acetamide], for which the MIC worked out at 2 µg/mL (≈ 4.73 µM).
